# Assay results published in PMC9090415, “Discovery of small molecule inhibitors of Plasmodium falciparum apicoplast DNA polymerase” (Journal of Enzyme Inhibition and Medicinal Chemistry, 2022).
# Biological target: T1, bacteriophage T4 DNA polymerase (Enterobacteria phage T4, UniProt P04415)
# T1 construct: made in house
# T1 sequence (P04415 1-898): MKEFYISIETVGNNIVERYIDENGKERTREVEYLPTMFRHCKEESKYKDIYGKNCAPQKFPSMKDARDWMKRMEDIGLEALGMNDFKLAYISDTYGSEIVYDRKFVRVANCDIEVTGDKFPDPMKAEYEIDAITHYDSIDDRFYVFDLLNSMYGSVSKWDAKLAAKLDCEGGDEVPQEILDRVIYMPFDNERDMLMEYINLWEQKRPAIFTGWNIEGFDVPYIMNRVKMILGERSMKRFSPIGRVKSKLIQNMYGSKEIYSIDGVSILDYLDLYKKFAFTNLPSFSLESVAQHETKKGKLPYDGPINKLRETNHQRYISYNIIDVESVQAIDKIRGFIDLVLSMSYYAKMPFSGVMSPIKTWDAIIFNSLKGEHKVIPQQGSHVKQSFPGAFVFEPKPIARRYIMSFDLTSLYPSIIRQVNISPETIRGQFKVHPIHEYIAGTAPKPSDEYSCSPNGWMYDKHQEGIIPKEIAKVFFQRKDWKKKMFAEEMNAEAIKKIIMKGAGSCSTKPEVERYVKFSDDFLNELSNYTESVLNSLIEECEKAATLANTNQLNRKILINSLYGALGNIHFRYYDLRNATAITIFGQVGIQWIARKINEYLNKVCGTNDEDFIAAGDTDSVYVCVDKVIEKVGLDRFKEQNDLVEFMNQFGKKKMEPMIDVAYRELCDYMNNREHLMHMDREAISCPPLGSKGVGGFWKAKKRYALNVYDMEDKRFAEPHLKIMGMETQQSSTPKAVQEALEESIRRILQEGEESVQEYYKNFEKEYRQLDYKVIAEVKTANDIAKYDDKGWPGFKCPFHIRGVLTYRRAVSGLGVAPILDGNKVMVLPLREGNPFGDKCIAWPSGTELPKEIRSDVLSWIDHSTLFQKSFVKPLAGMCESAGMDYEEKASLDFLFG
# Test: Counter-screen against bacteriophage T4 DNA polymerase
# Type: biochemical
# Details: for % inhibition T4 10' 2.5 / % inhibition T4 10' 5 / % inhibition T4 10' 10 / % inhibition T4 10' 20 / % inhibition T4 10' 40 / % inhibition T4 10' 80: read at 10'
# How it was run: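 Purified T4 DNA polymerase, a B-family enzyme, served as the counter-screen enzyme. Compounds were tested in dose-response format and IC50 values were derived.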
compound,measurement,setting,value
CC1(C)CC(=O)C2=C(C1)OC1=C(C(=O)CC(C)(C)C1)C2c1ccc(O)cc1 [KU0194226],% inhibition T4 10',"DRC-2, concentration 40",18%
same,% inhibition T4 40',"DRC-2, concentration 5",17%
same,% inhibition T4 40',"DRC-2, concentration 10",18%
same,% inhibition T4 40',"DRC-2, concentration 40",12%
same,% inhibition T4 40',"DRC-2, concentration 80",30%
same,% inhibition T4 90',"DRC-2, concentration 10",17%
same,% inhibition T4 90',"DRC-2, concentration 40",12%
same,% inhibition T4 90',"DRC-2, concentration 80",30%
same,% inhibition T4 180',"DRC-2, concentration 2.5",18%
same,% inhibition T4 180',"DRC-2, concentration 5",12%
same,% inhibition T4 180',"DRC-2, concentration 40",12%
same,% inhibition T4 180',"DRC-2, concentration 80",30%
"CCCCC(=O)N1CCc2c(nc3cc(-c4ccccc4Cl)[nH]n3c2=O)C1 [Molecule 37, CCCCC(=O)N1CCc2c(C1)nc1n(c2=O)[nH]c(c1)c1ccccc1Cl]",% inhibition T4 10',"DRC-2, concentration 2.5",6%
same,% inhibition T4 10',"DRC-2, concentration 5",-3%
same,% inhibition T4 10',"DRC-2, concentration 10",3.42%
same,% inhibition T4 10',"DRC-2, concentration 20",0.821%
same,% inhibition T4 10',"DRC-2, concentration 40",4.74%
same,% inhibition T4 10',"DRC-2, concentration 80",1.57%
same,% inhibition T4 40',"DRC-2, concentration 2.5",6%
same,% inhibition T4 40',"DRC-2, concentration 5",-3%
same,% inhibition T4 40',"DRC-2, concentration 10",3.42%
same,% inhibition T4 40',"DRC-2, concentration 20",0.821%
same,% inhibition T4 40',"DRC-2, concentration 40",4.74%
same,% inhibition T4 40',"DRC-2, concentration 80",1.57%
same,% inhibition T4 90',"DRC-2, concentration 2.5",5%
same,% inhibition T4 90',"DRC-2, concentration 40",5%
"COc1ccc(CNC(=O)Cn2nc3c(c2NC(=O)Cc2cccs2)CSC3)cc1 [Molecule 55, COc1ccc(cc1)CNC(=O)Cn1nc2c(c1NC(=O)Cc1cccs1)CSC2]",% inhibition T4 10',"DRC-2, concentration 5",18%
same,% inhibition T4 10',"DRC-2, concentration 10",26%
same,% inhibition T4 10',"DRC-2, concentration 20",26%
same,% inhibition T4 40',"DRC-2, concentration 10",26%
same,% inhibition T4 40',"DRC-2, concentration 20",28%
same,% inhibition T4 40',"DRC-2, concentration 80",38%
same,% inhibition T4 90',"DRC-2, concentration 20",26%
same,% inhibition T4 90',"DRC-2, concentration 80",38%
same,% inhibition T4 180',"DRC-2, concentration 10",18%
same,% inhibition T4 180',"DRC-2, concentration 40",28%
"O=C1N=C(Nc2cccc(Cl)c2Cl)S/C1=C\c1ccco1 [Molecule 3, O=C1N=C(S/C/1=C\c1ccco1)Nc1cccc(c1Cl)Cl]",% inhibition T4 10',"DRC-2, concentration 2.5",26%
same,% inhibition T4 10',"DRC-2, concentration 5",29%
same,% inhibition T4 10',"DRC-2, concentration 20",30%
same,% inhibition T4 10',"DRC-2, concentration 40",29%
same,% inhibition T4 10',"DRC-2, concentration 80",13%
same,% inhibition T4 40',"DRC-2, concentration 2.5",26%
same,% inhibition T4 40',"DRC-2, concentration 5",29%
same,% inhibition T4 40',"DRC-2, concentration 20",30%
same,% inhibition T4 40',"DRC-2, concentration 40",29%
same,% inhibition T4 40',"DRC-2, concentration 80",13%
same,% inhibition T4 90',"DRC-2, concentration 5",27%
same,% inhibition T4 90',"DRC-2, concentration 20",30%
same,% inhibition T4 90',"DRC-2, concentration 40",30%
same,% inhibition T4 180',"DRC-2, concentration 10",29%
same,% inhibition T4 180',"DRC-2, concentration 20",27%
same,% inhibition T4 180',"DRC-2, concentration 40",30%
"CC(NC(=O)Cc1cc(=O)[nH]c(SCc2cccc(Cl)c2)n1)c1ccccc1 (stereo not drawn) [Molecule 67, O=C(NC(c1ccccc1)C)Cc1nc(SCc2cccc(c2)Cl)[nH]c(=O)c1]",% inhibition T4 10',"DRC-2, concentration 10",19%
same,% inhibition T4 10',"DRC-2, concentration 20",18%
same,% inhibition T4 10',"DRC-2, concentration 80",31%
same,% inhibition T4 40',"DRC-2, concentration 2.5",-9%
same,% inhibition T4 40',"DRC-2, concentration 10",19%
same,% inhibition T4 40',"DRC-2, concentration 20",19%
same,% inhibition T4 40',"DRC-2, concentration 40",31%
same,% inhibition T4 90',"DRC-2, concentration 2.5",-9%
same,% inhibition T4 90',"DRC-2, concentration 10",18%
same,% inhibition T4 90',"DRC-2, concentration 20",18%
O=C(CSc1nnc(-c2ccco2)[nH]1)c1ccc(Cl)cc1 [KU0029065],% inhibition T4 40',"DRC-2, concentration 10",3%
same,% inhibition T4 40',"DRC-2, concentration 40",-2%
same,% inhibition T4 90',"DRC-2, concentration 2.5",-13%
same,% inhibition T4 90',"DRC-2, concentration 20",3%
same,% inhibition T4 180',"DRC-2, concentration 2.5",-13%
same,% inhibition T4 180',"DRC-2, concentration 10",-2%
CCC(C)NC(=O)c1cc(NC(C)=O)cc2nc(C)ccc12 (stereo not drawn) [KU0206314],% inhibition T4 10',"DRC-2, concentration 80",42%
same,% inhibition T4 90',"DRC-2, concentration 2.5",13%
same,% inhibition T4 90',"DRC-2, concentration 5",13%
same,% inhibition T4 90',"DRC-2, concentration 80",42%
"O=C(c1ccccc1)N1CCc2c(nc3cc(-c4ccccc4)[nH]n3c2=O)C1 [Molecule 30, O=C(N1CCc2c(C1)nc1n(c2=O)[nH]c(c1)c1ccccc1)c1ccccc1]",% inhibition T4 10' 2.5,"DRC-1, concentration 2.5",-1.603%
same,% inhibition T4 10' 5,"DRC-1, concentration 5",-4.492%
same,% inhibition T4 10' 10,"DRC-1, concentration 10",-6.45%
same,% inhibition T4 10' 20,"DRC-1, concentration 20",0.1503%
same,% inhibition T4 10' 40,"DRC-1, concentration 40",0.9641%
same,% inhibition T4 10' 80,"DRC-1, concentration 80",-0.6394%
same,% inhibition T4 70' 2.5,"DRC-1, read at 70', concentration 2.5",-4.009%
same,% inhibition T4 70' 5,"DRC-1, read at 70', concentration 5",-7.504%
same,% inhibition T4 70' 10,"DRC-1, read at 70', concentration 10",-7.7135%
same,% inhibition T4 70' 20,"DRC-1, read at 70', concentration 20",-3.401%
same,% inhibition T4 70' 40,"DRC-1, read at 70', concentration 40",-0.06602%
same,% inhibition T4 70' 80,"DRC-1, read at 70', concentration 80",-5.584%
same,% inhibition T4 130' 2.5,"DRC-1, read at 130', concentration 2.5",-6.3102%
same,% inhibition T4 130' 5,"DRC-1, read at 130', concentration 5",-10.6574%
same,% inhibition T4 130' 10,"DRC-1, read at 130', concentration 10",-9.449%
same,% inhibition T4 130' 20,"DRC-1, read at 130', concentration 20",-6.067%
same,% inhibition T4 130' 40,"DRC-1, read at 130', concentration 40",-1.0022%
same,% inhibition T4 130' 80,"DRC-1, read at 130', concentration 80",-9.233%
same,% inhibition T4 10' 2.5,"DRC-2, concentration 2.5",1.68%
same,% inhibition T4 10' 5,"DRC-2, concentration 5",-13%
same,% inhibition T4 10' 10,"DRC-2, concentration 10",-11%
same,% inhibition T4 10' 20,"DRC-2, concentration 20",-20%
same,% inhibition T4 10' 40,"DRC-2, concentration 40",-17%
same,% inhibition T4 10' 80,"DRC-2, concentration 80",-22%
same,% inhibition T4 40' 2.5,"DRC-2, read at 40', concentration 2.5",1.68%
same,% inhibition T4 40' 5,"DRC-2, read at 40', concentration 5",-13%
same,% inhibition T4 40' 10,"DRC-2, read at 40', concentration 10",-11%
same,% inhibition T4 40' 20,"DRC-2, read at 40', concentration 20",-20%
same,% inhibition T4 40' 40,"DRC-2, read at 40', concentration 40",-17%
same,% inhibition T4 40' 80,"DRC-2, read at 40', concentration 80",-22%
same,% inhibition T4 90' 2.5,"DRC-2, read at 90', concentration 2.5",1%
same,% inhibition T4 90' 5,"DRC-2, read at 90', concentration 5",-13%
same,% inhibition T4 90' 10,"DRC-2, read at 90', concentration 10",-10%
same,% inhibition T4 90' 20,"DRC-2, read at 90', concentration 20",-17%
same,% inhibition T4 90' 40,"DRC-2, read at 90', concentration 40",-15%
same,% inhibition T4 90' 80,"DRC-2, read at 90', concentration 80",-21%
same,% inhibition T4 180' 2.5,"DRC-2, read at 180', concentration 2.5",-2.79%
same,% inhibition T4 180' 5,"DRC-2, read at 180', concentration 5",-16%
same,% inhibition T4 180' 10,"DRC-2, read at 180', concentration 10",-13%
same,% inhibition T4 180' 20,"DRC-2, read at 180', concentration 20",-19%
same,% inhibition T4 180' 40,"DRC-2, read at 180', concentration 40",-15%
same,% inhibition T4 180' 80,"DRC-2, read at 180', concentration 80",-21%
